Test results: PubChem BioAssay AID256 (DTP/NCI, 2004)
“And” between values parts separate entries of the source, which are not always exact repeats. Equal entries are not always repeated. Inconclusive results and toxic doses are left out. Rule for the calls: active = survival T/C of 150% or more; inactive = T/C below 125% in these data.

Tested on: CD2F1 mice, L1210 leukemia ip, survival T/C
Experiment: NCI In Vivo Anticancer Drug Screen. Data for tumor model L1210 Leukemia (intraperitoneal) in CD2F1 (CDF1) mice
Settings: higher = longer survival
How it was run: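 Ratio T/C, where T is the treated-group value and C the vehicle-dosed control value, from mice implanted with a transplantable tumor.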

[1] = endpoint: mean survival time, dose: 100.0 mg/kg/injection, schedule: Q01DX001 (ip), vehicle: saline with Tween-80
[2] = endpoint: mean survival time, dose: 200.0 mg/kg/injection, schedule: Q01DX001 (ip), vehicle: saline with Tween-80
[3] = endpoint: mean survival time, dose: 400.0 mg/kg/injection, schedule: Q01DX001 (ip), vehicle: saline with Tween-80
[4] = endpoint: mean survival time, dose: 100.0 mg/kg/injection, schedule: Q01DX009 (ip), vehicle: saline with Tween-80
[5] = endpoint: mean survival time, dose: 200.0 mg/kg/injection, schedule: Q01DX009 (ip), vehicle: saline with Tween-80
[6] = endpoint: mean survival time, dose: 400.0 mg/kg/injection, schedule: Q01DX009 (ip), vehicle: saline with Tween-80
[7] = endpoint: mean survival time, dose: 100.0 mg/kg/injection, schedule: Q01DX009 (ip), vehicle: Klucel (hydroxypropylcellulose) (HPC)
[8] = endpoint: mean survival time, dose: 200.0 mg/kg/injection, schedule: Q01DX009 (ip), vehicle: Klucel (hydroxypropylcellulose) (HPC)
[9] = endpoint: mean survival time, dose: 400.0 mg/kg/injection, schedule: Q01DX009 (ip), vehicle: Klucel (hydroxypropylcellulose) (HPC)
[10] = endpoint: mean survival time, dose: 100.0 mg/kg/injection, schedule: Q01DX009 (ip), vehicle: saline
[11] = endpoint: mean survival time, dose: 100.0 mg/kg/injection, schedule: Q04DX003 (ip), vehicle: saline with Tween-80
[12] = endpoint: mean survival time, dose: 200.0 mg/kg/injection, schedule: Q01DX009 (ip), vehicle: saline
[13] = endpoint: mean survival time, dose: 200.0 mg/kg/injection, schedule: Q04DX003 (ip), vehicle: saline with Tween-80
[14] = endpoint: mean survival time, dose: 400.0 mg/kg/injection, schedule: Q04DX003 (ip), vehicle: saline with Tween-80
[15] = endpoint: mean survival time, dose: 25.0 mg/kg/injection, schedule: Q04DX002 (ip), vehicle: saline with Tween-80
[16] = endpoint: mean survival time, dose: 50.0 mg/kg/injection, schedule: Q04DX002 (ip), vehicle: saline with Tween-80
[17] = endpoint: mean survival time, dose: 100.0 mg/kg/injection, schedule: Q04DX002 (ip), vehicle: saline with Tween-80
[18] = endpoint: mean survival time, dose: 200.0 mg/kg/injection, schedule: Q04DX002 (ip), vehicle: saline with Tween-80
[19] = endpoint: mean survival time, dose: 400.0 mg/kg/injection, schedule: Q04DX002 (ip), vehicle: saline with Tween-80
[20] = endpoint: mean survival time, dose: 50.0 mg/kg/injection, schedule: Q01DX009 (ip), vehicle: other
[21] = endpoint: mean survival time, dose: 100.0 mg/kg/injection, schedule: Q01DX009 (ip), vehicle: other

Measured: T/C

CC(=O)Nc1cc(C)c(C)cc1[N+](=O)[O-]
inactive: [1] 98 % of control | [2] 101 % of control | [3] 98 % of control

O=C(CN1CCOCC1)Nc1nc(-c2ccc(Cl)cc2)cs1
inactive: endpoint: median survival time, dose: 12.5 mg/kg/injection, schedule: Q01DX009 (ip), vehicle: saline with Tween-80 102 % of control | endpoint: median survival time, dose: 25.0 mg/kg/injection, schedule: Q01DX009 (ip), vehicle: saline with Tween-80 98 % of control | endpoint: median survival time, dose: 50.0 mg/kg/injection, schedule: Q01DX009 (ip), vehicle: saline with Tween-80 98 % of control | endpoint: median survival time, dose: 100.0 mg/kg/injection, schedule: Q01DX009 (ip), vehicle: saline with Tween-80 105 % of control | endpoint: median survival time, dose: 200.0 mg/kg/injection, schedule: Q01DX009 (ip), vehicle: saline with Tween-80 93 % of control

CC(=O)NC(CO)C(O)c1ccc(N)cc1 (stereo not given)
inactive: [1] 97 % of control | [4] 102 % of control | [2] 101 % of control | [5] 96 % of control | [3] 104 % of control | [6] 96 % of control

O=c1[nH]c(SCc2ccc(Cl)cc2)nc(-c2ccc(Cl)cc2)c1CCO
inactive: [7] 87 % of control | [8] 87 % of control | [9] 87 % of control

COCC/C(COC)=N\N=C(/CCOC)COC
inactive: [10] 102 % of control | endpoint: mean survival time, dose: 100.0 mg/kg/injection, schedule: Q04DX003 (ip), vehicle: Klucel (hydroxypropylcellulose) (HPC) 102 % of control | [11] 101 % of control | [12] 108 % of control | endpoint: mean survival time, dose: 200.0 mg/kg/injection, schedule: Q04DX003 (ip), vehicle: Klucel (hydroxypropylcellulose) (HPC) 102 % of control | [13] 101 % of control | endpoint: mean survival time, dose: 400.0 mg/kg/injection, schedule: Q04DX003 (ip), vehicle: Klucel (hydroxypropylcellulose) (HPC) 114 % of control | [14] 106 % of control

O=C1c2ccccc2C(=O)c2c(NCCNCCNCCO)ccc(NCCNCCNCCO)c21
inactive: endpoint: mean survival time, dose: 8.0 mg/kg/injection, schedule: Q01DX009 (ip), vehicle: acid diluted with saline 100 % of control | endpoint: mean survival time, dose: 16.0 mg/kg/injection, schedule: Q01DX009 (ip), vehicle: acid diluted with saline 96 % of control | endpoint: mean survival time, dose: 32.0 mg/kg/injection, schedule: Q01DX009 (ip), vehicle: acid diluted with saline 108 % of control | endpoint: mean survival time, dose: 64.0 mg/kg/injection, schedule: Q01DX009 (ip), vehicle: acid diluted with saline 96 % of control

CN(C)P1(=O)OCC(C(C)(C)C)CO1 (stereo not given)
inactive: [15] 101 % of control and 91 % of control | [16] 97 % of control and 94 % of control | [17] 86 % of control and 94 % of control and 100 % of control

CC(C)(C)C1CCCCC1
inactive: endpoint: mean survival time, dose: 12.5 mg/kg/injection, schedule: Q01DX009 (ip), vehicle: Klucel (hydroxypropylcellulose) (HPC) 90 % of control and 101 % of control | endpoint: mean survival time, dose: 25.0 mg/kg/injection, schedule: Q01DX009 (ip), vehicle: Klucel (hydroxypropylcellulose) (HPC) 90 % of control and 98 % of control | endpoint: mean survival time, dose: 50.0 mg/kg/injection, schedule: Q01DX009 (ip), vehicle: Klucel (hydroxypropylcellulose) (HPC) 93 % of control and 101 % of control | [7] 88 % of control and 98 % of control | [8] 91 % of control and 98 % of control | [9] 93 % of control

CCOC(=O)C1=C2CC(C)(C)CCC2(C)CCC1=O (stereo not given)
inactive: [17] 100 % of control | [18] 100 % of control | [19] 88 % of control

COc1ccc2c(c1)CNC1c3cc(OC)c(O)cc3CC21 (stereo not given)
inactive: endpoint: mean survival time, dose: 66.0 mg/kg/injection, schedule: Q04DX003 (ip), vehicle: saline with Tween-80 107 % of control

COc1cc(/C=C/C(C)=N/Nc2ccc([N+](=O)[O-])cc2[N+](=O)[O-])ccc1O
inactive: [11] 95 % of control | [13] 94 % of control | [14] 95 % of control

NC(=S)NN=C1CCC(=NNC(N)=S)CC1
inactive: [20] 94 % of control | [21] 91 % of control | endpoint: mean survival time, dose: 250.0 mg/kg/injection, schedule: Q01DX009 (ip), vehicle: other 89 % of control

CC[C@@]1(O)C[C@H](OC2CC(N(C)C)C(OC3CC(O)C(OC4CCC(=O)C(C)O4)C(C)O3)C(C)O2)c2c(cc3c(c2O)C(=O)c2c(O)cccc2C3=O)[C@H]1C(=O)OC (stereo not given in full)
inactive: endpoint: mean survival time, dose: 0.12 mg/kg/injection, schedule: Q01DX009 (ip), vehicle: water 97 % of control | endpoint: mean survival time, dose: 0.25 mg/kg/injection, schedule: Q01DX009 (ip), vehicle: water 92 % of control | endpoint: mean survival time, dose: 0.5 mg/kg/injection, schedule: Q01DX009 (ip), vehicle: water 95 % of control | endpoint: mean survival time, dose: 1.0 mg/kg/injection, schedule: Q01DX009 (ip), vehicle: water 90 % of control | endpoint: mean survival time, dose: 2.0 mg/kg/injection, schedule: Q01DX009 (ip), vehicle: water 106 % of control | endpoint: mean survival time, dose: 4.0 mg/kg/injection, schedule: Q01DX009 (ip), vehicle: water 108 % of control | endpoint: mean survival time, dose: 8.0 mg/kg/injection, schedule: Q01DX009 (ip), vehicle: water 86 % of control | [16] 87 % of control

Nc1ccc(C(=O)Nc2ccc(OCc3nc(N)nc(N)c3-c3ccc(Cl)cc3)cc2)cc1
inactive: [1] 97 % of control | [2] 93 % of control | [3] 95 % of control

Nc1cc(N)c2cccnc2c1O
inactive: endpoint: mean survival time, dose: 6.25 mg/kg/injection, schedule: Q01DX009 (ip), vehicle: saline 101 % of control | endpoint: mean survival time, dose: 12.5 mg/kg/injection, schedule: Q01DX009 (ip), vehicle: saline 114 % of control

Cc1cc(C)n(C(=S)[S-])n1.Cc1cc(C)n(C(=S)[S-])n1.[Pt+2]
inactive: endpoint: mean survival time, dose: 25.0 mg/kg/injection, schedule: Q04DX003 (ip), vehicle: saline with Tween-80 90 % of control | endpoint: mean survival time, dose: 50.0 mg/kg/injection, schedule: Q04DX003 (ip), vehicle: saline with Tween-80 90 % of control | [11] 105 % of control

COC(=O)C1=CCC=CC1
inactive: [4] 104 % of control | [5] 104 % of control

Clc1ccc2scc3c4ccccc4nc-3c2c1
inactive: endpoint: mean survival time, dose: 25.0 mg/kg/injection, schedule: Q01DX009 (ip), vehicle: saline 104 % of control | endpoint: mean survival time, dose: 50.0 mg/kg/injection, schedule: Q01DX009 (ip), vehicle: saline 101 % of control

CCOC(CNc1ccc([N+](=O)[O-])cc1)OCC
inactive: [1] 95 % of control and 100 % of control | [4] 100 % of control and 106 % of control | [17] 100 % of control | [11] 94 % of control | [2] 92 % of control and 97 % of control | [5] 100 % of control and 102 % of control | [18] 98 % of control | [13] 104 % of control | [3] 101 % of control and 103 % of control | [6] 120 % of control and 111 % of control | [19] 100 % of control | [14] 96 % of control

O=C(Oc1ccc(O)cc1)N(c1cccc2ccccc12)c1cccc2ccccc12
inactive: [15] 100 % of control | [16] 95 % of control | [17] 91 % of control and 98 % of control | [19] 95 % of control

CN(C(N)=O)C1CCCC1
inactive: [10] 102 % of control | [12] 105 % of control | endpoint: mean survival time, dose: 400.0 mg/kg/injection, schedule: Q01DX009 (ip), vehicle: saline 107 % of control

O=C(Cn1[nH]c(=O)ccc1=O)c1ccccc1
inactive: endpoint: mean survival time, dose: 12.5 mg/kg/injection, schedule: Q04DX002 (ip), vehicle: saline with Tween-80 95 % of control | [15] 100 % of control | [16] 91 % of control and 92 % of control | [18] 94 % of control

CC(=O)c1ccc(C(=O)CC(O)(C(F)(F)F)C(F)(F)F)cc1
inactive: [20] 98 % of control | [21] 104 % of control | endpoint: mean survival time, dose: 100.0 mg/kg/injection, schedule: Q04DX003 (ip), vehicle: other 95 % of control | endpoint: mean survival time, dose: 200.0 mg/kg/injection, schedule: Q01DX009 (ip), vehicle: other 106 % of control | endpoint: mean survival time, dose: 200.0 mg/kg/injection, schedule: Q04DX003 (ip), vehicle: other 97 % of control

ClCC1C(CCl)C2(Cl)C(Cl)=C(Cl)C1(Cl)C2(Cl)Cl (stereo not given)
inactive: [4] 100 % of control | [11] 93 % of control | [5] 98 % of control | [13] 95 % of control | [6] 93 % of control | [14] 93 % of control

CC(C(=O)N1c2ccccc2Sc2ccccc21)[N+](C)(C)C (stereo not given)
inactive: endpoint: mean survival time, dose: 12.5 mg/kg/injection, schedule: Q04DX003 (ip), vehicle: saline 97 % of control | endpoint: mean survival time, dose: 25.0 mg/kg/injection, schedule: Q04DX003 (ip), vehicle: saline 101 % of control | endpoint: mean survival time, dose: 50.0 mg/kg/injection, schedule: Q04DX003 (ip), vehicle: saline 101 % of control
